According to patent US8048893B2, “Pyrazolyl derivatives, preparation process and intermediates of this process as medicinal products and pharmaceutical compositions containing them” (Aventis Pharma SA, priority 2003, dated 2011):

Row | melting point | Compound
1 | 173 °C (dec.) | Cl.Cl.Oc1nn(CCN2CC3CCC2C3)cc1-c1ccccc1 (stereo not shown)
2 | 189 °C | CC(Cn1cc(-c2ccccc2)c(O)n1)N(C)C.Cl.Cl (stereo not shown)
3 | 222 °C | Cc1c(-c2ccccc2)c(O)nn1CCN1CCCCC1.Cl.Cl
4 | 228 °C (dec.) | Cl.Cl.Oc1nn(CCN2CCCCCC2)cc1-c1ccccc1
5 | 121 °C | CS(=O)(=O)Nc1nn(CCN2CCCCC2)cc1-c1ccccc1 [Example 25, N-[4-Phenyl-1-(2-piperidin-1-ylethyl)-1H-pyrazol-3-yl]-methanesulfonamide]
6 | 132 °C | CN1CCCC(Cn2cc(-c3ccccc3)c(O)n2)C1 (stereo not shown) [Example 27, 1-(1-Methylpiperidin-3-ylmethyl)-4-phenyl-1H-pyrazol-3-ol]
7 | 168 °C | NC(=O)c1ccccc1-c1cnn(CCN2CCCCC2)c1 [Example 72, 2-[1-(2-Piperidin-1-ylethyl)-1H-pyrazol-4-yl]benzamide]
